Assay results published in ChEMBL document CHEMBL3817770, “Design and synthesis of 5-aminolaevulinic acid/3-hydroxypyridinone conjugates for photodynamic therapy: enhancement of protoporphyrin IX production and photo-toxicity in tumor cells” (Medchemcomm, 2016).
The source made the active and inactive calls. The calls are words filed in the database; no cut-off is given here.

Legend:
LNCaP [1] = experiment: Increase in protoporphyrin 9 levels in human LNCAP cells at 200 uM after 3 to 24 hrs by fluorescence spectrometer plate reader method; assay type: functional, cell-based
KB [2] = experiment: Increase in protoporphyrin 9 levels in human KB cells at 100 uM after 24 hrs by fluorescence spectrometer plate reader method relative to ALA; assay type: functional
[3] = Increase in protoporphyrin 9 levels in human BPH1 cells at 100 uM after 24 hrs by fluorescence spectrometer plate reader method relative to ALA; assay type: ADME, cell-based; conditions: bph-1, 24 h
A549 [4] = experiment: Phototoxicity in human A549 cells assessed as cell survival at 200 uM incubated for 4 hrs followed by irradiation with blue light for 5 mins by MTT assay; assay type: functional
KB [5] = experiment: Phototoxicity in human KB cells assessed as cell survival at 200 uM incubated for 4 hrs followed by irradiation with blue light for 5 mins by MTT assay; assay type: functional
[6] = Dark toxicity in human BPH1 cells at 200 uM after 4 hrs by MTT assay; assay type: cell-based; conditions: bph-1, 4 h
LNCaP [7] = experiment: Increase in protoporphyrin 9 levels in human LNCAP cells at 100 uM after 24 hrs by fluorescence spectrometer plate reader method relative to ALA; assay type: functional
LNCaP [8] = experiment: Phototoxicity in human LNCAP cells assessed as cell survival at 200 uM incubated for 4 hrs followed by irradiation with blue light for 5 mins by MTT assay; assay type: functional
A549 [9] = experiment: Dark toxicity in human A549 cells at 200 uM after 4 hrs by MTT assay; assay type: cell-based; conditions: a549, 4 h
KB [10] = experiment: Increase in protoporphyrin 9 levels in human KB cells at 200 uM after 3 to 24 hrs by fluorescence spectrometer plate reader method; assay type: functional, cell-based
MCF7 [11] = experiment: Phototoxicity in human MCF7 cells assessed as cell survival at 100 uM incubated for 4 hrs followed by irradiation with blue light for 5 mins by MTT assay; assay type: functional
LNCaP [12] = experiment: Dark toxicity in human LNCAP cells at 200 uM after 4 hrs by MTT assay; assay type: cell-based
MCF7 [13] = experiment: Dark toxicity in human MCF7 cells at 200 uM after 4 hrs by MTT assay; assay type: cell-based; conditions: mcf7, 4 h
A549 [14] = experiment: Increase in protoporphyrin 9 levels in human A549 cells at 200 uM after 3 to 24 hrs by fluorescence spectrometer plate reader method; assay type: functional, cell-based
LNCaP [15] = experiment: Phototoxicity in human LNCAP cells assessed as cell survival at 100 uM incubated for 4 hrs followed by irradiation with blue light for 5 mins by MTT assay; assay type: functional
A549 [16] = experiment: Phototoxicity in human A549 cells assessed as cell survival at 100 uM incubated for 4 hrs followed by irradiation with blue light for 5 mins by MTT assay; assay type: functional
A549 [17] = experiment: Increase in protoporphyrin 9 levels in human A549 cells at 100 uM after 24 hrs by fluorescence spectrometer plate reader method relative to ALA; assay type: functional
[18] = Phototoxicity in human BPH1 cells assessed as cell survival at 200 uM incubated for 4 hrs followed by irradiation with blue light for 5 mins by MTT assay; assay type: cell-based, BPH-1; conditions: bph-1, 4 h, 200 µM
[19] = Increase in protoporphyrin 9 levels in human BPH1 cells at 200 uM after 3 to 24 hrs by fluorescence spectrometer plate reader method; assay type: ADME, cell-based; conditions: bph-1, 200 µM

Structure (SMILES)	Activity (LNCaP [1])	Activity (KB [2])	Activity [3]	Activity (A549 [4])	Activity (KB [5])	Activity [6]	Activity (LNCaP [7])	Activity (LNCaP [8])	Activity (A549 [9])	Activity (KB [10])	Activity (MCF7 [11])	Activity (LNCaP [12])	Activity (MCF7 [13])	Activity (A549 [14])	Activity (LNCaP [15])	Activity (A549 [16])	Activity (A549 [17])	Activity [18]	Activity [19]
COCCn1ccc(=O)c(O)c1C(=O)N[C@@H](Cc1ccccc1)C(=O)NCC(=O)CCC(=O)OC	inactive	inactive	Non-toxic	inactive	inactive	Non-toxic	inactive	inactive	Non-toxic	inactive	inactive	Non-toxic	Non-toxic	inactive	inactive	inactive	inactive	Non-toxic	Non-toxic
CCn1ccc(=O)c(O)c1C(=O)N[C@@H](CC(C)C)C(=O)NCC(=O)CCC(=O)OC	inactive	inactive	Non-toxic	inactive	inactive	Non-toxic	inactive	inactive	Non-toxic	inactive	inactive	Non-toxic	Non-toxic	inactive	inactive	inactive	inactive	Non-toxic	Non-toxic
CCCCn1ccc(=O)c(O)c1C(=O)N[C@@H](Cc1ccccc1)C(=O)NCC(=O)CCC(=O)OC	inactive	inactive	Non-toxic	inactive	inactive	Non-toxic	inactive	inactive	Non-toxic	inactive	inactive	Non-toxic	Non-toxic	inactive	inactive	inactive	inactive	Non-toxic	Non-toxic
CCCCCCn1ccc(=O)c(O)c1C(=O)N[C@@H](Cc1ccccc1)C(=O)NCC(=O)CCC(=O)OC	inactive	inactive	Non-toxic	inactive	inactive	Non-toxic	inactive	inactive	Non-toxic	inactive	inactive	Non-toxic	Non-toxic	inactive	inactive	inactive	inactive	Non-toxic	Non-toxic
COCCn1ccc(=O)c(O)c1C(=O)N[C@@H](CC(C)C)C(=O)NCC(=O)CCC(=O)OC	inactive	inactive	Non-toxic	inactive	inactive	Non-toxic	inactive	inactive	Non-toxic	inactive	inactive	Non-toxic	Non-toxic	inactive	inactive	inactive	inactive	Non-toxic	Non-toxic
